Where no end group is shown, it is not given here. [ ]: non-standard residue; d: D form. pGlu = O=C1CC[C@@H](C(=O)O)N1
Columns and labels:
[1] = system: TNBS-induced model of acute inflammatory bowel disease (UC) in SD rat; assay: TNBS-induced model of acute inflammatory bowel disease (UC) in SD rat; format: in vivo
Description: In this experiment, a rat model of ulcerative colitis was established by administering trinitrobenzene sulfonic acid (TNBS) to laboratory animal male SD rats for a single enema intervention. Acute colitis in rats induced by trinitrobenzene sulfonic acid (TNBS) is an immune response induced by cytokines secreted by Th1 type cells. […] This model is simple to establish and has good reproducibility. It is an experimental animal model widely used in evaluating drugs for the treatment of inflammatory bowel disease. […] During the experimental treatment period (D1-D14), the body weight and general clinical observation indicators (including but not limited to food intake, water intake, activity level and defecation, etc.) of the animals in each experimental group were dynamically collected. At the same time, based on the relevant scoring standards for the disease activity index of ulcerative colitis, the reactivity such as the weight loss degree, stool morphology and trait, and bloody stool of the animals in each experimental group after TNBS induction were scored, and the disease activity index (DAI) of ulcerative colitis was calculated, once a day for 14 consecutive days. At the end point of the experiment, colon tissues of animals in each experimental group were collected, and the length and weight of the colon were measured and then the non-autopsy images were collected. Then the colon was cut open along the intestinal wall longitudinally and autopsy images were collected. Based on the “Criteria for Scoring Gross Morphological Manifestations of the Colon”, the gross damage with respect to colon adhesions, colon ulcers and inflammation of animals in each experimental group was observed and scored. Ulcer images were collected under a stereomicroscope and the area of colon ulcer foci was calculated, followed by routine fixation.

[2] = system: zebrafish model of intestinal mucosal injury; assay: Efficacy in relieving colitis: intestinal lumen area in TNBS-treated zebrafish; format: in vivo; set-up: key to Activity in relieving intestinal lumen dilatation: * p < 0.05; ** p < 0.01; *** p < 0.001; “−“ indicates absence of activity; “+” indicates some relief of intestinal lumen dilatation; “#” indicates that all the zebrafishes died in the experiment; “&” indicates that 13 zebrafishes died in the experiment; settings: for Activity in relieving intestinal lumen dilatation: 1000 μg/mL, significance vs model control group of the same batch; for Intestinal lumen area (pixels, mean ± SE): 2 days after TNBS, n = 10
Description: Experimental animals: Wild-type AB strain zebrafishes, bred by natural pair mating. Zebrafishes aged 3 days post fertilization (3 dpf). Zebrafishes were kept in fish farming water at 28° C. (water quality: 200 mg of instant sea salt in each 1L of reverse osmosis water, with the conductivity of 450-550 μS/cm; pH of 6.5-8.5; and hardness of 50-100 mg/L CaCO3), the experimental animal use license number is: SYXK (Zhe) 2012-0171, and the breeding management met the requirements of the international AAALAC certification (certification number: 001458).
(1) Grouping: Polypeptide group: prepared into a stock solution of 20.0 mg/mL with ultrapure water and stored at −20° C.
Positive control group: prednisone, as white powder, with batch number C10016501, Shanghai Macklin Biochemical Technology Co., Ltd., stored at 4° C.; prepared into a 15.0 mg/mL stock solution with DMSO, and stored in aliquots at −20° C.
Normal control group and model control group.
(2) Experimental method: 3 dpf wild-type AB strain zebrafishes were randomly selected and placed in a 6-well plate, with 30 zebrafishes in each well (experimental group). Except for the normal control group, all other experimental groups were given TNBS in water to establish the zebrafish model of intestinal mucosal injury. After 2 days of treatment at 28° C., TNBS was removed, and polypeptide compound in water (at concentrations shown in Table 4) was given respectively, and for the positive control, prednisone was 15.0 μg/mL. A normal control group (healthy group) and a model control group (intestinal mucosal injury group) were set up at the same time. The capacity of each well (experimental group) was 3 mL. After 2 days of treatment at 28° C., 10 zebrafishes were randomly selected from each experimental group and photographed under a dissecting microscope. NIS-Elements D 3.20 advanced image processing software was used to analyze and collect data, and the intestinal lumen area of the zebrafish was analyzed. The statistical analysis results of this indicator were used to evaluate the efficacy of the samples in relieving colitis. The statistics results were expressed as mean±SE. SPSS26.0 software was used for statistical analysis, and p<0.05 indicates statistically significant difference.
The concentration gradient of the test substances set in this experimental system was 250 μg/mL, 500 μg/mL, and 1000 μg/mL. […] When the concentration of the test substance was further increased for intervention, the death phenomenon of zebrafishes was found in the group; therefore, in the subsequent rounds of activity evaluation, each test polypeptide compound was uniformly administered at 1000 μg/mL for intervention.

[3] = D 0-D 14, compound 12: 0.8 mg/kg, mesalazine: 30.0 mg/kg, enema once a day 14 days, mean ± SD
[4] = D 14, compound 12: 0.8 mg/kg, mesalazine: 30.0 mg/kg, enema once a day 14 days, mean ± SD
[5] = experimental endpoint, compound 12: 0.8 mg/kg, mesalazine: 30.0 mg/kg, enema once a day 14 days, mean ± SD
[6] = set treatment regimen, enema once a day 14 days, vs model control group

Nc1ccc(O)c(C(=O)O)c1 [Mesalazine, mesalazine, reference compound]
Body weight, Grouping day (D 0, g) ([1]; D 0, before treatment, compound 12: 0.8 mg/kg, mesalazine: 30.0 mg/kg, enema once a day, mean ± SD): 276.64 ± 7.47 g
DAI score AUC(0-14 d) (D 0-D 14) [1, 3]: 58.75 ± 2.93
Weight change range (D 0-D 14, %) [1, 3]: −4.29 ± 7.79%
DAI score, Experimental day 1 (D 1, point) ([1]; D 1, compound 12: 0.8 mg/kg, mesalazine: 30.0 mg/kg, enema once a day, mean ± SD): 4.2 ± 0.4 point
DAI score, Experimental day 3 (D 3, point) ([1]; D 3, compound 12: 0.8 mg/kg, mesalazine: 30.0 mg/kg, enema once a day, mean ± SD): 6.2 ± 0.6 point
Body weight, Experimental day 5 (D 5, g) ([1]; D 5, compound 12: 0.8 mg/kg, mesalazine: 30.0 mg/kg, enema once a day, mean ± SD): 234.86 ± 8.07 g
Body weight, Experimental endpoint (D 14, g) [1, 4]: 264.43 ± 17.65 g
DAI score, Experimental endpoint (D 14, point) [1, 4]: 2.1 ± 1.6 point
Colon length (cm) [1, 5]: 14.76 ± 2.06 cm
Colon ulcer and inflammation score (point) [1, 5]: 4.30 ± 0.95 point
Colon weight (g) [1, 5]: 3.42 ± 1.15^ g
Colonic adhesion score (point) [1, 5]: 2.60 ± 0.52 point
Effect on disease progression of ulcerative colitis / DAI scores (in words) [1, 6]: no significant effect on the disease symptoms of ulcerative colitis
Effect on weight gain inhibition / weight loss response of model animals (in words) [1, 6]: did not show a significant weight improvement effect

KQPVPQAKPRKVAAQ [Compound 105]
Activity in relieving intestinal lumen dilatation [2]: ** (** p < 0.01)

K[dE]PVPQAKPRKVAAQ [Compound 62]
Activity in relieving intestinal lumen dilatation [2]: * (* p < 0.05)

Lys-Glu-Pro-Val (KEPV; printed: Lys-Glu-Pro-Val) [Compound 7]
Activity in relieving intestinal lumen dilatation [2]: +

Lys-Glu-Pro-Val-Pro (KEPVP; printed: Lys-Glu-Pro-Val-Pro) [Compound 85]
Activity in relieving intestinal lumen dilatation [2]: * (* p < 0.05)

Lys-Pro-Arg-Lys (KPRK; printed: Lys-Pro-Arg-Lys) [Compound 10]
Activity in relieving intestinal lumen dilatation [2]: ** (** p < 0.01)

Lys-Val-Ala-Ala (KVAA; printed: Lys-Val-Ala-Ala) [Compound 16]
Activity in relieving intestinal lumen dilatation [2]: +

NPVPQAK [Compound 50]
Activity in relieving intestinal lumen dilatation [2]: * (* p < 0.05)

PAYKEPVPQAKPRKVAAQ [Compound 90]
Activity in relieving intestinal lumen dilatation [2]: * (* p < 0.05)

PRKVAAQ [Compound 5]
Intestinal lumen area (pixels, mean ± SE) ([2]; 250 μg/mL in water): 42960 ± 2661 pixels
Intestinal lumen area (pixels, mean ± SE) ([2]; 500 μg/mL in water): 45713 ± 4481 pixels
Intestinal lumen area (pixels, mean ± SE) ([2]; 1000 μg/mL in water): 33977 ± 3524 pixels
Activity in relieving intestinal lumen dilatation [2]: * (* p < 0.05)
Intestinal lumen area compared with the model control group (in words) ([2]; 250, 500, 1000 μg/mL, Table 4): significant statistical differences compared with the model control group

PVPQAK [Compound 44]
Activity in relieving intestinal lumen dilatation [2]: −

PVPQAKP [Compound 60]
Activity in relieving intestinal lumen dilatation [2]: −

PVPQAKPR [Compound 59]
Activity in relieving intestinal lumen dilatation [2]: +

Pro-Arg-Lys-Val (PRKV; printed: Pro-Arg-Lys-Val) [Compound 18]
Activity in relieving intestinal lumen dilatation [2]: −

Pro-Gln-Ala-Lys (PQAK; printed: Pro-Gln-Ala-Lys) [Compound 14]
Activity in relieving intestinal lumen dilatation [2]: +

Pro-Val-Pro-Ala (PVPA; printed: Pro-Val-Pro-Ala) [Compound 42]
Activity in relieving intestinal lumen dilatation [2]: +

Pro-Val-Pro-Gln-Ala (PVPQA; printed: Pro-Val-Pro-Gln-Ala) [Compound 39]
Activity in relieving intestinal lumen dilatation [2]: +

Pro-Val-Pro-Glu-Ala (PVPEA; printed: Pro-Val-Pro-Glu-Ala) [Compound 40]
Activity in relieving intestinal lumen dilatation [2]: +

Pro-Val-Pro-Ile-Ala (PVPIA; printed: Pro-Val-Pro-Ile-Ala) [Compound 41]
Activity in relieving intestinal lumen dilatation [2]: +

RKDVYEPVPQAK [Compound 93]
Activity in relieving intestinal lumen dilatation [2]: * (* p < 0.05)

RKDVYKEPVPQAK [Compound 92]
Activity in relieving intestinal lumen dilatation [2]: ** (** p < 0.01)

RKDVYKEPVPQAKPRKVAAQ [Compound 91]
Activity in relieving intestinal lumen dilatation [2]: +

RKDVYPVPQ [Compound 94]
Activity in relieving intestinal lumen dilatation [2]: *** (*** p < 0.001)

SSEDIKEEPVPQAK [Compound 98]
Activity in relieving intestinal lumen dilatation [2]: ** (** p < 0.01)

SSEDIKEKEPVPQAKPRKVAAQ [Compound 97]
Activity in relieving intestinal lumen dilatation [2]: *** (*** p < 0.001)

SSEDIKEPVPQ [Compound 99]
Activity in relieving intestinal lumen dilatation [2]: * (* p < 0.05)

VPPKEPVPQAKPRKVAAQ [Compound 100]
Activity in relieving intestinal lumen dilatation [2]: *** (*** p < 0.001)

VPYKEPVPQAKPRKVAAQ [Compound 88]
Activity in relieving intestinal lumen dilatation [2]: * (* p < 0.05)

Val-Ala-Ala-Gln (VAAQ; printed: Val-Ala-Ala-Gln) [Compound 8]
Activity in relieving intestinal lumen dilatation [2]: +

Val-Pro-Gln-Ala (VPQA; printed: Val-Pro-Gln-Ala) [Compound 13]
Activity in relieving intestinal lumen dilatation [2]: −

pyro-Glu-Leu-Lys-Glu-Pro-Val-Pro-Gln-Ala-Lys-Pro-Arg-Lys-Val-Ala-Ala-Gln ([pGlu]LKEPVPQAKPRKVAAQ; also: acetate salt) [Compound 89]
Activity in relieving intestinal lumen dilatation [2]: ** (** p < 0.01)
